Measurements as given in patent US8192962B2, “Processes for detecting toxic substances” (Daikin Industries, Ltd., priority 2001, dated 2012).

Test system: Energy system protein genes
Experiment: DNA chip mRNA expression in yeast, energy system protein genes (Table 4)
Assay type: cell-based, Saccharomyces cerevisiae S288C
Outline: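 Value is the scanned fluorescence intensity ratio of exposed versus chemical-free cells. Log-phase S288C yeast in YPD at 25° C. received one toxic substance for two hours, dosed to slow growth without killing; Cy3/Cy5-labeled cDNA from oligo-dT-purified mRNA was hybridized to a whole-genome chip at 65° C.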

## [Cl][Hg][Cl] [(3), HgCl2]
Yeast gene YJR048W
  The level of expressed mRNA in the presence of chemical substance/The level of expressed mRNA in the absence of chemical substance: 2.2
Yeast gene YJR121W, cells incubated two hours with the chemical substance
  The level of expressed mRNA in the presence of chemical substance/The level of expressed mRNA in the absence of chemical substance: 3.3
Yeast gene YJR155W
  The level of expressed mRNA in the presence of chemical substance/The level of expressed mRNA in the absence of chemical substance: 1.4
Yeast gene YKL016C, cells incubated two hours with the chemical substance
  The level of expressed mRNA in the presence of chemical substance/The level of expressed mRNA in the absence of chemical substance: 0.7
Yeast gene YKL060C, cells incubated two hours with the chemical substance
  The level of expressed mRNA in the presence of chemical substance/The level of expressed mRNA in the absence of chemical substance: 2.5
Yeast gene YKL141W, cells incubated two hours with the chemical substance
  The level of expressed mRNA in the presence of chemical substance/The level of expressed mRNA in the absence of chemical substance: 4.7
Yeast gene YKL148C, cells incubated two hours with the chemical substance
  The level of expressed mRNA in the presence of chemical substance/The level of expressed mRNA in the absence of chemical substance: 3.7
Yeast gene YKR009C, cells incubated two hours with the chemical substance
  The level of expressed mRNA in the presence of chemical substance/The level of expressed mRNA in the absence of chemical substance: 1.5
Yeast gene YKR058W, cells incubated two hours with the chemical substance, 25° C., YPD medium
  The level of expressed mRNA in the presence of chemical substance/The level of expressed mRNA in the absence of chemical substance: 1.4
Yeast gene YKR097W
  The level of expressed mRNA in the presence of chemical substance/The level of expressed mRNA in the absence of chemical substance: 1.3
Yeast gene YLL041C, cells incubated two hours with the chemical substance
  The level of expressed mRNA in the presence of chemical substance/The level of expressed mRNA in the absence of chemical substance: 4.6
Yeast gene YLR038C, cells incubated two hours with the chemical substance
  The level of expressed mRNA in the presence of chemical substance/The level of expressed mRNA in the absence of chemical substance: 0.6
Yeast gene YLR044C, cells incubated two hours with the chemical substance
  The level of expressed mRNA in the presence of chemical substance/The level of expressed mRNA in the absence of chemical substance: 2.2
Yeast gene YLR134W, cells incubated two hours with the chemical substance
  The level of expressed mRNA in the presence of chemical substance/The level of expressed mRNA in the absence of chemical substance: 2.3
Yeast gene YLR258W, cells incubated two hours with the chemical substance
  The level of expressed mRNA in the presence of chemical substance/The level of expressed mRNA in the absence of chemical substance: 4.2
Yeast gene YLR284C, cells incubated two hours with the chemical substance
  The level of expressed mRNA in the presence of chemical substance/The level of expressed mRNA in the absence of chemical substance: 3.8
Yeast gene YLR295C, cells incubated two hours with the chemical substance, 25° C., YPD medium
  The level of expressed mRNA in the presence of chemical substance/The level of expressed mRNA in the absence of chemical substance: 1.1
Yeast gene YLR304C, cells incubated two hours with the chemical substance
  The level of expressed mRNA in the presence of chemical substance/The level of expressed mRNA in the absence of chemical substance: 5.0
Yeast gene YLR345W
  The level of expressed mRNA in the presence of chemical substance/The level of expressed mRNA in the absence of chemical substance: 1.4
Yeast gene YLR354C, cells incubated two hours with the chemical substance
  The level of expressed mRNA in the presence of chemical substance/The level of expressed mRNA in the absence of chemical substance: 2.3
Yeast gene YLR377C, cells incubated two hours with the chemical substance
  The level of expressed mRNA in the presence of chemical substance/The level of expressed mRNA in the absence of chemical substance: 1.8
Yeast gene YLR395C, cells incubated two hours with the chemical substance
  The level of expressed mRNA in the presence of chemical substance/The level of expressed mRNA in the absence of chemical substance: 2.2
Yeast gene YML087C
  The level of expressed mRNA in the presence of chemical substance/The level of expressed mRNA in the absence of chemical substance: 0.8
Yeast gene YML120C, cells incubated two hours with the chemical substance
  The level of expressed mRNA in the presence of chemical substance/The level of expressed mRNA in the absence of chemical substance: 1.9
Yeast gene YML129C, cells incubated two hours with the chemical substance
  The level of expressed mRNA in the presence of chemical substance/The level of expressed mRNA in the absence of chemical substance: 0.9
Yeast gene YMR073C, cells incubated two hours with the chemical substance
  The level of expressed mRNA in the presence of chemical substance/The level of expressed mRNA in the absence of chemical substance: 1.2
Yeast gene YMR118C
  The level of expressed mRNA in the presence of chemical substance/The level of expressed mRNA in the absence of chemical substance: 1.4
Yeast gene YMR205C, cells incubated two hours with the chemical substance
  The level of expressed mRNA in the presence of chemical substance/The level of expressed mRNA in the absence of chemical substance: 2.3
Yeast gene YMR261C, cells incubated two hours with the chemical substance
  The level of expressed mRNA in the presence of chemical substance/The level of expressed mRNA in the absence of chemical substance: 3.6
Yeast gene YMR267W, cells incubated two hours with the chemical substance, 25° C., YPD medium
  The level of expressed mRNA in the presence of chemical substance/The level of expressed mRNA in the absence of chemical substance: 0.7
Yeast gene YMR323W, cells incubated two hours with the chemical substance
  The level of expressed mRNA in the presence of chemical substance/The level of expressed mRNA in the absence of chemical substance: 2.9
Yeast gene YNL071W
  The level of expressed mRNA in the presence of chemical substance/The level of expressed mRNA in the absence of chemical substance: 1.7
Yeast gene YNL202W, cells incubated two hours with the chemical substance
  The level of expressed mRNA in the presence of chemical substance/The level of expressed mRNA in the absence of chemical substance: 1.2
Yeast gene YNL241C
  The level of expressed mRNA in the presence of chemical substance/The level of expressed mRNA in the absence of chemical substance: 4.3
Yeast gene YNL331C
  The level of expressed mRNA in the presence of chemical substance/The level of expressed mRNA in the absence of chemical substance: 1.3
Yeast gene YOL086C, cells incubated two hours with the chemical substance
  The level of expressed mRNA in the presence of chemical substance/The level of expressed mRNA in the absence of chemical substance: 2.2
Yeast gene YOL165C
  The level of expressed mRNA in the presence of chemical substance/The level of expressed mRNA in the absence of chemical substance: 1.8
Yeast gene YOR142W, cells incubated two hours with the chemical substance
  The level of expressed mRNA in the presence of chemical substance/The level of expressed mRNA in the absence of chemical substance: 3.4
Yeast gene YOR178C, cells incubated two hours with the chemical substance
  The level of expressed mRNA in the presence of chemical substance/The level of expressed mRNA in the absence of chemical substance: 4.8
Yeast gene YOR388C, cells incubated two hours with the chemical substance
  The level of expressed mRNA in the presence of chemical substance/The level of expressed mRNA in the absence of chemical substance: 1.3
Yeast gene YPL031C, cells incubated two hours with the chemical substance
  The level of expressed mRNA in the presence of chemical substance/The level of expressed mRNA in the absence of chemical substance: 1.4
Yeast gene YPL061W, cells incubated two hours with the chemical substance
  The level of expressed mRNA in the presence of chemical substance/The level of expressed mRNA in the absence of chemical substance: 5.0
Yeast gene YPL088W
  The level of expressed mRNA in the presence of chemical substance/The level of expressed mRNA in the absence of chemical substance: 0.6
Yeast gene YPL171C
  The level of expressed mRNA in the presence of chemical substance/The level of expressed mRNA in the absence of chemical substance: 3.5
Yeast gene YPL240C
  The level of expressed mRNA in the presence of chemical substance/The level of expressed mRNA in the absence of chemical substance: 2.4
Yeast gene YPL262W, cells incubated two hours with the chemical substance
  The level of expressed mRNA in the presence of chemical substance/The level of expressed mRNA in the absence of chemical substance: 3.8
Yeast gene YPL275W, cells incubated two hours with the chemical substance
  The level of expressed mRNA in the presence of chemical substance/The level of expressed mRNA in the absence of chemical substance: 1.3
Yeast gene YPL276W, cells incubated two hours with the chemical substance
  The level of expressed mRNA in the presence of chemical substance/The level of expressed mRNA in the absence of chemical substance: 1.6
Yeast gene YPR048W, cells incubated two hours with the chemical substance
  The level of expressed mRNA in the presence of chemical substance/The level of expressed mRNA in the absence of chemical substance: 0.9
Yeast gene YPR184W, cells incubated two hours with the chemical substance
  The level of expressed mRNA in the presence of chemical substance/The level of expressed mRNA in the absence of chemical substance: 5.7
